26 compounds from patent US10214512B2, “Factor XIA inhibitors” (MERCK SHARP & DOHME CORP., priority 2015, dated 2019) can be followed below.

In test [1] the target is purified human Factor XIa (Homo sapiens (Human), UniProt P03951). Put plainly: Factor XIa Assay. Format: biochemical. Particulars: purified human Factor XIa 40 pM; substrate Z-Gly-Pro-Arg-AFC 100 μM; 50 mM HEPES pH 7.4; read-out: Human FXIa Ki. In short, it runs like this:
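Ki obtained from the dependence of uninhibited/inhibited initial-velocity ratio on inhibitor concentration, under a competitive-inhibition model. Reactions used 100 μM Z-Gly-Pro-Arg-AFC and 40 pM final human Factor XIa in pH 7.4 HEPES buffer with NaCl, CaCl2 and PEG 8000; run at rt or 37° C following pre-equilibration.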

Test [2] has as its target purified Human plasma Kallikrein (Homo sapiens (Human), UniProt P03952). Put plainly: Kallikrein Assay. The test is classed as biochemical. To be noted: purified Human plasma Kallikrein 0.5 nM; substrate Acetyl-K-P-R-AFC; 50 mM HEPES pH 7.4; Ki from IC50 by Cheng Prusoff. The method, boiled down: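 Purified human plasma kallikrein (0.5 nM) with fluorogenic Ac-K-P-R-AFC ([…]) in 50 mM HEPES pH 7.4, 150 mM NaCl, 5 mM CaCl2, 0.1% PEG 8000, at rt or 37 °C. Substrate hydrolysis rate read with and without inhibitor; IC50 from four-parameter logistic fit, converted to Ki by Cheng–Prusoff.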

The Ki is a dissociation constant, usually derived from enzyme kinetics or from competition with a known ligand.

Sequence of purified Human plasma Kallikrein (P03952 391-638): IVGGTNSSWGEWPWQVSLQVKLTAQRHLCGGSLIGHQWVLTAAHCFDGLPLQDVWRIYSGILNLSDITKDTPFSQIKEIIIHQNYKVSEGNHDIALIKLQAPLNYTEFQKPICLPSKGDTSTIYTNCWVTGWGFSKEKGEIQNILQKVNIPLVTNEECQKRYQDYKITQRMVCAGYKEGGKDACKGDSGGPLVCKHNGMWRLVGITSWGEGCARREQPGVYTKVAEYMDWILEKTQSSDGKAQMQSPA
Sequence of purified Human plasma Kallikrein (P03952 20-390 partner): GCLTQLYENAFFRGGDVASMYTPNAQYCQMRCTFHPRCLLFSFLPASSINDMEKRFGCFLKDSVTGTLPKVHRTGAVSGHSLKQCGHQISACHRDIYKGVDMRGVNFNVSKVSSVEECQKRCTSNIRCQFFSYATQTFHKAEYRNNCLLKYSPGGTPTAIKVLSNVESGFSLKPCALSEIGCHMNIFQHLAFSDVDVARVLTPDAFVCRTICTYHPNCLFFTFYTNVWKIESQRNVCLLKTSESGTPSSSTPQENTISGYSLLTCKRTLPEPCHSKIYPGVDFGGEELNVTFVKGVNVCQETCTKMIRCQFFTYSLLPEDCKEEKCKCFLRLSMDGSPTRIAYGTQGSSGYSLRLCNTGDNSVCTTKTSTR
Sequence of purified human Factor XIa (P03951 388-625): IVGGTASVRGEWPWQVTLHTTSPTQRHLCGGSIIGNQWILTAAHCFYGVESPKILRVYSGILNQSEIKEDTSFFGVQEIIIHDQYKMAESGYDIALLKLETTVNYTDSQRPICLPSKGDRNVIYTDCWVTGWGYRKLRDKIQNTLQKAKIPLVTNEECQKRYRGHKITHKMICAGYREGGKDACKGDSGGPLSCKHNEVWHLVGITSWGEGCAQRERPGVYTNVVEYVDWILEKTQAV
Sequence of purified human Factor XIa (P03951 19-387 partner): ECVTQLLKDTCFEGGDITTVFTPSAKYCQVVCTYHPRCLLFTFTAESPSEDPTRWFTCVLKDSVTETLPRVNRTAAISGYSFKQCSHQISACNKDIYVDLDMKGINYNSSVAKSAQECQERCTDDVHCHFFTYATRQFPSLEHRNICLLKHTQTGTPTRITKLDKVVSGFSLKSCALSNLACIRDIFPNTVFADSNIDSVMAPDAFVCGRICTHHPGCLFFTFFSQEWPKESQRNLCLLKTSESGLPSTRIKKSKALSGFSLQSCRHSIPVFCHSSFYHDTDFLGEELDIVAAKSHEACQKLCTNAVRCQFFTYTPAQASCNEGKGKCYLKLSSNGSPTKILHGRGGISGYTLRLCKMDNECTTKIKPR

As to `COC(=O)Nc1ccc2c(c1)NC(=O)CCCC[C@H](c1ccc(-c3c(F)ccc(Cl)c3F)c[n+]1[O-])c1cc-2ncc1F` (single isomer, unassigned) [Example 72], the Ki worked out at 0.5 nM in test [1] and 2.96 nM in test [2].

As to `O=C1CCCCC(c2ccc(-c3c(F)ccc(Cl)c3F)c[n+]2[O-])c2nc(c[nH]2)-c2cc(F)ccc2N1` (single isomer, unassigned) [Example 104-a], the Ki in test [1] worked out at 10.8 nM; in test [2], 26.3 nM.

With `C[C@H]1CCC[C@@H](c2ccc(-c3cc(Cl)ccc3-n3cnnn3)c[n+]2[O-])c2cccc(c2)-c2cc(F)ccc2NC1=O` [Example 3-c, 5-(5-Chloro-2-(1H-tetrazol-1-yl)phenyl)-2-((5S,9R)-2^5-fluoro-5-methyl-4-oxo-3-aza-1(1,3),2(1,2)-dibenzenacyclononaphane-9-yl)pyridine 1-oxide], the figures for the Ki in test [1] and in test [2] were 26.3 nM and 660 nM, respectively.

In the case of `COC(=O)Nc1ccc2c(c1)NC(=O)CCCC[C@H](c1ccc(-c3cc(Cl)ccc3-n3cc(C(F)(F)F)cn3)c[n+]1[O-])c1cccc-2c1` (single isomer, unassigned) [Example 40], the figures for the Ki in test [1] and in test [2] were 0.46 nM and 13.7 nM, respectively.

Turning to `COC(=O)Nc1ccc2c(c1)NC(=O)CCCCC(c1ccc(-c3cc(Cl)ccc3-n3cnnn3)cn1)c1nc-2c[nH]1` (stereo not shown) [Example 97, methyl (Z)-(9-(5-(5-chloro-2-(1H-tetrazol-1-yl)phenyl)pyridin-2-yl)-4-oxo-1^1H-3-AZA-1(4,2)-imidazola-2(1,2)-benzenacyclononaphane-2^4-yl)carbamate], the results for the Ki in test [1] and in test [2] were 3.3 nM and 161 nM, respectively.

On to `COC(=O)Nc1ccc2c(c1)NC(=O)CCCC[C@H](c1ccc(-c3c(F)cccc3F)c[n+]1[O-])c1nc-2c(C)[nH]1` (single isomer, unassigned) [Example 119], for which the Ki in test [1] turned out to be 0.54 nM; in test [2], 1.68 nM.

Consider `COC(=O)Nc1ccc2c(c1)NC(=O)CCCC[C@H](c1ccc(-c3c(C(F)F)ccc(Cl)c3F)c[n+]1[O-])c1nc-2c(C)[nH]1` (single isomer, unassigned) [Example 124], for which the Ki stood at 0.2 nM in test [1] and 0.73 nM in test [2].

In the case of `COC(=O)Nc1ccc2c(c1)NC(=O)CC1CC1CC(c1ccc(-c3c(OC(F)F)ccc(Cl)c3F)c[n+]1[O-])c1nc-2c(C)[nH]1` (racemic) [Example 159], the Ki in test [1] was found to be 0.66 nM; in test [2], 3.5 nM.

`COC(=O)Nc1ccc2c(c1)NC(=O)CCCC[C@H](c1ccc(-c3cc(Cl)ccc3OC(F)F)c[n+]1[O-])c1cccc-2c1` (single isomer, unassigned) [Example 33]: the Ki was 0.28 nM in test [1] and 1.67 nM in test [2].

Consider `COC(=O)Nc1ccc2c(c1)NC(=O)CCCC[C@H](c1ccc(-c3cc(Cl)ccc3C(F)(F)F)c[n+]1[O-])c1cccc-2c1` (single isomer, unassigned) [Example 32], for which the Ki in test [1] turned out to be 0.83 nM; in test [2] it was 2.95 nM.

`COC(=O)Nc1ccc2c(c1)NC(=O)CCCC[C@H](c1ccc(-c3ccccc3C(F)(F)F)c[n+]1[O-])c1nc-2c(C)[nH]1` (single isomer, unassigned) [Example 121]: the figures for the Ki in test [1] and in test [2] were 0.43 nM and 3.9 nM, respectively.

Consider `COC(=O)Nc1ccc2c(c1)NC(=O)C(C)CCCC(c1ccc(-c3c(F)ccc(Cl)c3F)c[n+]1[O-])c1ccc(F)c-2c1` (single isomer, unassigned) [Example 86-d, 5-(3-Chloro-2,6-difluorophenyl)-2-(1^6-fluoro-2^4-((methoxycarbonyl)amino)-5-methyl-4-oxo-3-aza-1(1,3),2(1,2) -dibenzenacyclononaphane-9-yl)pyridine 1-oxide], for which the Ki came to 1.65 nM in test [1] and 5.36 nM in test [2].

“2-(2^5-carboxy-4-oxo-3-aza- 1(1,3),2(1,2)- dibenzenacyclononaphane-9-yl)-5- (3-chloro-2,6-difluorophenyl)pyridine 1-oxide [Example 9]”: the Ki came out at 13.6 nM in test [1] and 379 nM in test [2].

Turning to `Cc1[nH]c2nc1-c1ccc(N)cc1NC(=O)CCCC[C@@H]2c1ccc(-c2c(F)ccc(Cl)c2F)c[n+]1[O-]` (single isomer, unassigned) [Example 128], the Ki in test [1] is 0.14 nM; in test [2], 0.74 nM.

As for `O=C1CCCCC(c2ccc(-c3cc(Cl)ccc3-n3cc(C(F)(F)F)nn3)c[n+]2[O-])c2cccc(c2)-c2c(cnn2C(F)F)N1` (stereo not shown) [Example 165, 5-(5-chloro-2-(4-(trifluoromethyl)-1H-1,2,3-triazol-1-yl)phenyl)-2-(1^1-(difluoromethyl)-8-oxo-1^1H-9-aza-1(5,4)-pyrazola-2(1,3) -benzenacyclononaphane-3-Yl)pyridine 1-oxide], the Ki in test [1] came to 0.21 nM; in test [2], 5.76 nM.

As to `COC(=O)Nc1ccc2c(c1)NC(=O)CCCCC(c1ccc(-c3cc(Cl)ccc3-n3cnnn3)c[n+]1[O-])c1cc-2[n+]([O-])cc1F` (single isomer, unassigned) [Example 81-a, 9-(5-(5-chloro-2-(1h-tetrazol-1-yl)phenyl)-1-oxidopyridin-2-yl)-1^5-fluoro-2^4-((methoxycarbonyl)amino)-4-oxo-3-aza-1(2,4)-pyridin-1-iuma-2(1,2)-benzenacyclononaphane 1^1-oxide], the Ki in test [1] stood at 0.14 nM; in test [2], 0.46 nM.

For `COC(=O)Nc1ccc2c(c1)NC(=O)C(C)CCCC(c1ccc(-c3c(F)ccc(Cl)c3F)c[n+]1[O-])c1cccc-2c1` (single isomer, unassigned) [Example 50-b, 5-(3-chloro-2,6-difluorophenyl)-2-(2^4-((methoxycarbonyl)amino)-5-methyl-4-oxo-3-aza-1(1,3),2(1,2)-dinenzenacyclononaphane-9-yl)pyridine 1-oxide], the Ki in test [1] stood at 3.5 nM; in test [2] it was 10.6 nM.

For `O=C1CCCC[C@H](c2ccc(-c3cc(Cl)ccc3-n3cnnn3)cn2)c2cccc(c2)-c2cc(F)ccc2N1` [Example 1-a, (S)-9-(5-(5-Chloro-2-(1H-tetrazol-1-yl)phenyl)pyridin-2-yl)-2^5-fluoro-3-aza-1(1,3),2(1,2)-dibenzenacyclononaphan-4-one], the Ki in test [1] amounted to 22.3 nM; in test [2], 205 nM.

Take `CCOC(=O)Nc1ccc2c(c1)NC(=O)CCCCC(c1ccc(-c3c(F)ccc(Cl)c3F)c[n+]1[O-])c1nc-2c[nH]1` (single isomer, unassigned) [Example 109-a, (Z)-5-(3-chloro-2,6-difluorophenyl)-2-(2^4-((ethoxycarbonyl)amino)-4-oxo-1^1H-3-aza-1(4,2)-imidazola-2(1,2)-benzenacyclononaphane-9-yl)pyridine 1-oxide]: the values for the inhibition constant (Ki) in test [1] and in test [2] were 0.23 nM and 0.77 nM, respectively.

Regarding `O=C1CCCCC(c2ccc(-c3cc(Cl)ccc3-n3cnnn3)cn2)c2ccnc(c2)-c2cc(F)ccc2N1` (stereo not shown) [Example 56, 9-(5-(5-chloro-2-(1h-tetrazol-1-yl)phenyl)pyridin-2-yl)-25-fluoro-3-aza-1(2,4)-pyridina-2(1,2)-benzenacyclononaphan-4-one], the Ki in test [1] amounted to 14.1 nM; in test [2] it was 149 nM.

Turning to `COC(=O)Nc1ccc2c(c1)NC(=O)CCCCC(c1ccc(-c3c(OC(F)F)ccc(Cl)c3F)c[n+]1[O-])c1nc-2c[nH]1` (single isomer, unassigned) [Example 100-a, (Z)-5-(3-Chloro-6-(difluoromethoxy)-2-fluorophenyl)-2-(2^4-((methoxycarbonyl)amino)-4-oxo-1^1H-3-aza-1(4,2)-imidazola-2(1,2) -benzenacyclononaphane-9-yl)pyridine 1-oxide], the results for the Ki in test [1] and in test [2] were 0.33 nM and 1.02 nM, respectively.

For the compound `COC(=O)Nc1ccc2c(c1)NC(=O)CCCCC(c1ccc(-c3cc(Cl)ccc3-n3cnnn3)cn1)c1cc-2ncc1F` (stereo not shown) [Example 57, methyl (9-(5-(5-chloro-2-(1h-tetrazol-1-yl)phenyl)pyridin-2-yl)-1^5-fluoro-4-oxo-3-aza-1(2,4)-pyridina-2(1,2)-benzenacyclononaphane-2^4-yl)carbamate], the Ki amounted to 0.52 nM in test [1] and 12.1 nM in test [2].

As for `COC(=O)Nc1ccc2c(c1)NC(=O)CC1CC1CC(c1ccc(-c3c(F)ccc(Cl)c3F)c[n+]1[O-])c1nc-2c[nH]1` (racemic) [Example 153], the Ki in test [1] stood at 3 nM; in test [2] it was 14.4 nM.

For `COC(=O)Nc1ccc2c(c1)NC(=O)CCCC[C@H](c1ccc(-c3cc(Cl)ccc3-n3cc(C#N)cn3)c[n+]1[O-])c1cccc-2c1` (single isomer, unassigned) [Example 41], the Ki in test [1] came to 0.19 nM; in test [2] it was 6.27 nM.

For the compound `C[C@@H]1CCC[C@H](c2ccc(-c3cc(Cl)ccc3-n3cc(Cl)nn3)c[n+]2[O-])c2cccc(c2)-c2c(cnn2C(F)F)NC1=O` (single isomer, unassigned) [Example 166-a], the Ki in test [1] was 0.14 nM; in test [2], 1.39 nM.

Regarding `O=C(C1CCCCC(c2ccc(-c3cc(Cl)ccc3-n3cnnn3)c[n+]2[O-])c2cccc(c2)-c2cc(F)ccc2N1)N1CCCC1` (single isomer, unassigned) [Example 79-c, 5-(5-Chloro-2-(1H-tetrazol-1-yl)phenyl)-2-(2^5-fluoro-4-(pyrrolidine-1-carbonyl)-3-aza-1(1,3),2(1,2)-dibenzenacyclononaphane-9-yl)pyridine 1-oxide], the Ki in test [1] was found to be 52.2 nM; in test [2] it was 2920 nM.
